Data: US10076519B2 (CYTOKINETICS, INC., priority 2010, dated 2018)

What follows are compounds tested on rabbit skeletal myofibrils (fast skeletal myofibrils) (assay: Activation of fast skeletal myofibrils (PUMA assay, PK/LDH-coupled ATPase at pCa25)). Conditions: AC1.4 determined according to the procedure of Example 39; reported as class symbols.
Type: biochemical
How it was run: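 ATPase activity of Triton-washed rabbit skeletal myofibrils, roughly 90% fast fibres, tracked by NADH loss at 340 nm through a PK/LDH-coupled ADP-regenerating system. Calcium set to 25% of maximal activity (pCa25), in PIPES 12 mM pH 6.8 with 2 mM MgCl2 and 1 mM DTT; AC1.4 reported.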

| Compound | Mean AC1.4 |
| --- | --- |
| CC(C)(CNc1ccc(-c2cc(F)cc(C(N)=O)c2)nn1)c1ccc(F)cc1 [3-fluoro-5-(6-{[2-(4-fluorophenyl)-2-methylpropyl]amino}pyridazin-3-yl)benzamide] | B (B=1-10 uM) |
| NC(=O)c1cccc(-c2ccc(NCCc3ccccn3)nn2)c1 [3-{6-[(2-(2-pyridyl)ethyl)amino]pyridazin-3-yl}benzamide] | D (D=>20 uM) |
| NC(=O)c1cccc(-c2ccc(NCCc3cccnc3)nn2)c1 [3-{6-[(2-(3-pyridyl)ethyl)amino]pyridazin-3-yl}benzamide] | D (D=>20 uM) |
| NC(=O)c1cccc(-c2ccc(NCCc3ccncc3)nn2)c1 [3-{6-[(2-(4-pyridyl)ethyl)amino]pyridazin-3-yl}benzamide] | D (D=>20 uM) |
| CC(C)(CNc1ccc(-c2cccc(C(N)=O)c2)nn1)c1ncccn1 [3-{6-[(2-methyl-2-pyrimidin-2-ylpropyl)amino]pyridazin-3-yl}benzamide] | D (D=>20 uM) |
| NC(=O)c1cccc(-c2ccc(NCCc3ccccc3)nn2)c1 [3-{6-[(2-phenylethyl)amino]pyridazin-3-yl}benzamide] | D (D=>20 uM) |
| CC(CNc1ccc(-c2cccc(C(N)=O)c2)nn1)c1ccccc1 (centres unmarked) [3-{6-[(2-phenylpropyl)amino]pyridazin-3-yl}benzamide] | B (B=1-10 uM) |
| CC(CNc1ccc(-c2cccc(C(N)=O)c2)nn1)N1CCCCC1 (centres unmarked) [3-{6-[(2-piperidylpropyl)amino]pyridazin-3-yl}benzamide] | D (D=>20 uM) |
| NC(=O)c1cccc(-c2ccc(NCCc3cnccn3)nn2)c1 [3-{6-[(2-pyrazin-2-ylethyl)amino]pyridazin-3-yl}benzamide] | D (D=>20 uM) |
| CC(C)(C)CCNc1ccc(-c2cccc(C(N)=O)c2)nn1 [3-{6-[(3,3-dimethylbutyl)amino]pyridazin-3-yl}benzamide] | D (D=>20 uM) |
| NC(=O)c1cccc(-c2ccc(NCC3CCc4ccccc43)nn2)c1 (centres unmarked) [3-{6-[(indanylmethyl)amino]pyridazin-3-yl}benzamide] | B (B=1-10 uM) |
| CC(C)(CNc1ccc(C2=CCN(S(C)(=O)=O)CC2)nn1)c1ccc(F)cc1 [4-(6-{[2-(4-fluorophenyl)-2-methylpropyl]amino}pyridazin-3-yl)-1-(methylsulfonyl)-1,2,5,6-tetrahydropyridine] | B (B=1-10 uM) |
| CC(C)(CNc1ccc(-c2ccc(C(N)=O)cc2)nn1)c1ccc(F)cc1 [4-(6-{[2-(4-fluorophenyl)-2-methylpropyl]amino}pyridazin-3-yl)benzamide] | B (B=1-10 uM) |
| CC(C)(CNc1ccc(-c2ccc(C#N)cc2)nn1)c1ccc(F)cc1 [4-(6-{[2-(4-fluorophenyl)-2-methylpropyl]amino}pyridazin-3-yl)benzenecarbonitrile] | B (B=1-10 uM) |

Same assay, conditions: median AC1.4 class, procedure of Example 39

| Compound | Mean AC1.4 |
| --- | --- |
| NC(=O)c1nc(-c2ccc(NCC3(c4ncccc4F)CCC3)nn2)no1 [3-[6-({[(3-fluoro-2-pyridyl)cyclobutyl]methyl}ami-no)pyridazin-3-yl]-1,2,4-oxadiazole-5-carboxamide] | B (B=1-10 uM) |
| O=c1[nH]nc(-c2ccc(NCC3(c4ncccc4F)CCC3)nn2)[nH]1 [3-[6-({[(3-fluoro-2-pyridyl)cyclobutyl]methyl}ami-no)pyridazin-3-yl]-1,2,4-triazolin-5-one] | C (C=10-20 uM) |
| O=c1cc(-c2ccc(NCC3(c4ncccc4F)CCC3)nn2)[nH][nH]1 [3-[6-({[(3-fluoro-2-pyridyl)cyclobutyl]methyl}ami-no)pyridazin-3-yl]-3-pyrazolin-5-one] | B (B=1-10 uM) |
| O=c1[nH]c(-c2cnc(-c3ccc(NCC4(c5ncccc5F)CCC4)nn3)s2)no1 [3-{2-[6-({[(3-fluoro-2-pyridyl)cyclobutyl]methyl}ami-no)pyridazin-3-yl]-1,3-thiazol-5-yl}-1,2,4-oxadiazolin-5-one] | B (B=1-10 uM) |
| O=c1[nH]nc(-c2cnc(-c3ccc(NCC4(c5ncccc5F)CCC4)nn3)s2)[nH]1 [3-{2-[6-({[(3-fluoro-2-pyridyl)cyclobutyl]methyl}ami-no)pyridazin-3-yl]-1,3-thiazol-5-yl}-1,2,4-triazolin-5-one] | A (A=<1 uM) |
| O=c1[nH]nc(-c2cccc(-c3ccc(NCC4(c5ncccc5F)CCC4)nn3)c2)[nH]1 [3-{3-[6-({[(3-fluoro-2-pyridyl)cyclobutyl]methyl}ami-no)pyridazin-3-yl]phenyl}-1,2,4-triazolin-5-one] | B (B=1-10 uM) |
| O=c1[nH]nc(-c2ccc(F)c(-c3ccc(NCC4(c5ncccc5F)CCC4)nn3)c2)[nH]1 [3-{4-fluoro-3-[6-({[(3-fluoro(2-pyridyl))cyclobutyl]methyl}ami-no)pyridazin-3-yl]phenyl}-1,2,4-triazolin-5-one] | A (A=<1 uM) |
| O=c1[nH]nc(-c2ccc(-c3ccc(NCC4(c5ncccc5F)CCC4)nn3)s2)[nH]1 [3-{5-[6-({[(3-fluoro-2-pyridyl)cyclobutyl]methyl}ami-no)pyridazin-3-yl]-2-thienyl}-1,2,4-triazolin-5-one] | A (A=<1 uM) |
| NC(=O)c1cccc(-c2ccc(NC3(c4nccs4)CCC3)nn2)c1 [3-{6-[(1,3-thiazol-2-ylcyclobutyl)amino]pyridazin-3-yl}benzamide] | D (D=>20 uM) |
| CC(C)(Nc1ccc(-c2cccc(C(N)=O)c2)nn1)c1ccccn1 [3-{6-[(1-methyl-1-(2-pyridyl)ethyl)amino]pyridazin-3-yl}benzamide] | D (D=>20 uM) |
| CC(C)(Nc1ccc(-c2cccc(C(N)=O)c2)nn1)c1ccccc1 [3-{6-[(1-methyl-1-phenylethyl)amino]pyridazin-3-yl}benzamide] | B (B=1-10 uM) |
| CC(C)(Nc1ccc(-c2cccc(C#N)c2)nn1)c1ccccc1 [3-{6-[(1-methyl-1-phenylethyl)amino]pyridazin-3-yl}benzenecarbonitrile] | B (B=1-10 uM) |
| NC(=O)c1cccc(-c2ccc(NCC(F)(F)c3ccccn3)nn2)c1 [3-{6-[(2,2-difluoro-2-(2-pyridyl)ethyl)amino]pyridazin-3-yl}benzamide] | D (D=>20 uM) |
| NC(=O)c1cccc(-c2ccc(NC3(c4ccccn4)CCC3)nn2)c1 [3-{6-[(2-pyridylcyclobutyl)amino]pyridazin-3-yl}benzamide] | D (D=>20 uM) |
| CC(C)(C)Nc1ccc(-c2cccc(C(N)=O)c2)nn1 [3-{6-[(tert-butyl)amino]pyridazin-3-yl}benzamide] | C (C=10-20 uM) |

Same assay, conditions: median AC1.4 reported as class; procedure of Example 39

| Compound | Mean AC1.4 |
| --- | --- |
| NC(=O)CCc1cnc(-c2ccc(NCC3(c4ncccc4F)CCC3)nn2)s1 [3-{2-[6-({[(3-fluoro-2-pyridyl)cyclobutyl]methyl}ami-no)pyridazin-3-yl]-1,3-thiazol-5-yl}propanamide] | B (B=1-10 uM) |
| O=C(O)CCc1cnc(-c2ccc(NCC3(c4ncccc4F)CCC3)nn2)s1 [3-{2-[6-({[(3-fluoro-2-pyridyl)cyclobutyl]methyl}ami-no)pyridazin-3-yl]-1,3-thiazol-5-yl}propanoic acid] | B (B=1-10 uM) |
| NC(=O)c1ccc(O)c(-c2ccc(N3CC4(c5ncccc5F)CC3C4)nn2)c1 [3-{6-[4-(3-fluoro(2-pyridyl))-2-azabicyclo[2.1.1]hex-2-yl]pyridazin-3-yl}-4-hydroxybenzamide] | D (D=>20 uM) |
